Data from paper PMC4821887, “Identification of chemicals that mimic transcriptional changes associated with autism, brain aging and neurodegeneration” (Nature Communications, 2016).
“Also recorded” adds a separate entry of the source. Counter-ions that a name gives are not always drawn. Like-named read-outs stand apart in the source and are kept apart here.

How the values were obtained:
[1] = system: mouse cortical neuron cultures
[2] = system: mouse cortical neuron-enriched cultures; experiment: RNA-seq transcriptional screen with hierarchical clustering and cluster membership; type: cell-based; conditions: for Chemical cluster assigned by gene expression: 24 h at non-toxic concentration, hierarchical clustering of 5,121 variably expressed genes; for Transcriptional change relative to the cluster 2 signature: RNA-seq, Supplementary Fig. 9
Method: (§1) Cultures were treated with the non-cytotoxic dose of each chemical, by exchanging half of the original medium with chemicals at 2 × concentration in prewarmed feeding medium, on DIV 7 for 24 h in 12-well plates at a density of 5 × 10^5 cells per well. RNA was isolated using RNeasy plus mini kit (Cat. #74134, Qiagen). RNA yield and quality were determined using a Nanodrop 1000 Spectrophotometer (Thermo Scientific). Samples were further assessed for quality using either an Agilent Bioanalyzer 2100 or TapeStation 2200 to obtain a RIN. RIN values exceeding 7 were used for sequencing. RNA samples were used to generate and barcode complementary DNA libraries using the TruSeq RNA Library Preparation Kit at the UNC High Throughput Sequencing Facility. Pools of 24 multiplexed samples were sequenced per lane on an Illumina HiSeq 2500 using 50-bp paired-end reads.
(§2) RNA-seq reads were filtered using TagDust and aligned to the reference mouse genome (mm9) with TopHat using default parameters. Reads aligning to ribosomal RNA genes were removed. Transcript abundance was estimated by computing Reads per kilobase per million mapped reads (RPKM) using RefSeq gene models aggregated by gene symbol. For differential expression analyses, raw counts over RefSeq exons were used, and then were compared across samples using DESeq[62].
RPKMs for all RefSeq genes and all samples were filtered such that a given gene had >90% of samples with RPKM >0 and gene length exceeded 500 bp. RPKMs were then log10-transformed, quantile-normalized, median-centred, and the effects due to culture or sequencing batch were removed using a mixed model analysis of variance. This batch correction step was performed on individual experiments rather than chemical–vehicle ratios to reduce the effects due to variations in culture composition as well as batch-to-batch variations at the level of sequencing. Genes were then median-centred again, and filtered such that their s.d. exceeded 0.1. Chemical replicates were then combined using the median. Classes of chemicals were then discovered in two ways. First, we performed hierarchical clustering using average linkage and Pearson correlation distance measures. The boundaries of the discovered classes from clustering were set by computing pairwise Spearman correlations for all samples. A given cluster had to have at least three members with the minimum pairwise Spearman correlation coefficient exceeding 0.2, though cluster members often exceeded a correlation of 0.6 (Supplementary Fig. 5c,d). Seven chemical clusters were discovered, however one was removed due to failing to have a positive silhouette width, a metric of cluster robustness. These definitions enabled the three positive control topoisomerase inhibitors to form a cohesive group of chemicals with known structural and functional similarity (cluster 5). None of the culture or sequencing batches contributed to the formation of any one of the final six clusters (Supplementary Fig. 4).

mouse cortical cultures = experiment: RNA-seq differential expression (DESeq) against matched vehicle; type: cell-based; conditions: 24 h
Method: Figure 4 Cluster 2 chemicals alter expression of a common set of genes. […] RNA-seq was performed in quadruplicate after treating cortical cultures with fenamidone (10 μM) or pyraclostrobin (0.1 μM) for 24 h (n=3 biological replicates) and compared with matched vehicle controls using DESeq to detect differentially expressed genes, listed in Supplementary Data 4.
as §1, with “[…].” for “RNA yield and quality were determined using a Nanodrop 1000 Spectrophotometer (Thermo Scientific).”
as §2

[3] = cited from earlier work
cortical neurons [4] = system: cortical neurons; design: method as in PMID 20881019; conditions: cited from earlier work
rats = conditions: lowest dose tested; cited from earlier work
[5] = system: mitochondrial superoxide in cortical neurons; experiment: Mitochondrial superoxide detection (MitoSOX Red live-cell imaging); type: cell-based, mouse; conditions: for Effect of pretreatment on fenamidone-induced O2− production: fenamidone 10 μM, 2 h; for O2− production at the sequencing concentration: seven-point concentration-response, Supplementary Fig. 8; for Mitochondrial superoxide (O2−) production: 2 h treatment, MitoSOX, vincristine 500 µM in Supplementary Fig. 10b
cortical neurons [6] = experiment: Soma morphology (proportion of cells with altered soma morphology) in live-cell imaging; type: cell-based, mouse; conditions: for Effect of pretreatment on fenamidone-induced soma swelling / aberrant morphology: fenamidone 10 μM, 2 h; for Soma swelling / aberrant cell morphology: 2 h treatment, vincristine 500 µM in Supplementary Fig. 10c
humans = conditions: cited from earlier work
microtubules = conditions: cited from earlier work
purified tubulin = experiment: Tubulin polymerization assay (cell-free, BK011P); type: biochemical; conditions: 37 °C, fluorescence over 60 min, equimolar doses
cortical neuron cultures = system: cortical neuron cultures; design: method as in PMID 25404338; conditions: cited from earlier work
[7] = pretreatment 18 h, two concentrations

SMILES: C[C@@]1(c2ccc(Oc3ccccc3)cc2)OC(=O)N(Nc2ccccc2)C1=O (racemic) [famoxadone]
- % Dead cells (vehicle subtracted) [1]: 1.213%
- Chemical cluster assigned by gene expression [2]: cluster 2

SMILES: COC(=O)N(OC)c1ccccc1COc1ccn(-c2ccc(Cl)cc2)n1 [pyraclostrobin]
- log2FoldChange, gene Acta2 (mouse cortical cultures; 0.1 μM, vs vehicle, DESeq): 3.944
- log2FoldChange, gene Gpnmb (mouse cortical cultures; 0.1 μM, vs vehicle, DESeq): 3.288
- log2FoldChange, gene Hspg2 (mouse cortical cultures; 0.1 μM, vs vehicle, DESeq): 3.427
- log2FoldChange, gene Tagln (mouse cortical cultures; 0.1 μM, vs vehicle, DESeq): 3.548
- log2FoldChange, gene Thbs1 (mouse cortical cultures; 0.1 μM, vs vehicle, DESeq): 3.263
- Differentially expressed genes (DESeq) compared between the two fungicides (mouse cortical cultures; fenamidone 10 μM or pyraclostrobin 0.1 μM): up- and downregulate a largely overlapping set of genes
- Neurotoxicity in a set of assays used by regulatory agencies [3]: No evidence of neurotoxicity
- Chemical cluster assigned by gene expression [2]: cluster 2

SMILES: CC1(C)C(C=C(Cl)Cl)C1C(=O)OC(C#N)c1ccc(F)c(Oc2ccccc2)c1 (stereo not shown) [cyfluthrin]
- Chemical cluster assigned by gene expression [2]: cluster 1
- Calcium influx in cortical neurons (cortical neurons [4]): stimulate sustained calcium influx

SMILES: CON=C(C(=O)OC)c1ccccc1CON=C(C)c1cccc(C(F)(F)F)c1 [trifloxystrobin]
- % Dead cells (vehicle subtracted) ([1]; mouse, 24 h, 10 µM): 7.404%
- Chemical cluster assigned by gene expression [2]: cluster 2

SMILES: CO/C=C(/C(=O)OC)c1ccccc1COc1cccc(C(F)(F)F)n1 [Picoxystrobin]
- Acute neurotoxicity (motor activity) (rats): caused acute neurotoxicity (reduced motor activity) at the lowest dose tested

SMILES: CC(C)(C)c1ccc(CSc2cnn(C(C)(C)C)c(=O)c2Cl)cc1 [pyridaben]
- Chemical cluster assigned by gene expression [2]: cluster 2

SMILES: Cc1nn(C)c(Oc2ccccc2)c1C=NOCc1ccc(C(=O)OC(C)(C)C)cc1 [fenpyroximate]
- Chemical cluster assigned by gene expression [2]: cluster 2
- EC50 ([5]; Mus musculus, Cortical neurone, read-out: Superoxide production, concentration for half-maximum response (EC50)): 7 nM

SMILES: CC1(C)C(C(=O)OC(C#N)c2cccc(Oc3ccccc3)c2)C1(C)C (stereo not shown) [fenpropathrin]
- Chemical cluster assigned by gene expression [2]: cluster 1
- Calcium influx in cortical neurons (cortical neurons [4]): stimulate sustained calcium influx

SMILES: C[S+]([O-])CCCCN=C=S (racemic) [sulforaphane, DL-sulforophane]
- Effect of pretreatment on fenamidone-induced soma swelling / aberrant morphology (cortical neurons [6]; [7]): attenuated
- Effect of pretreatment on fenamidone-induced transcriptional changes (RNA-seq) ([2]; pretreatment 10 μM, 18 h, fenamidone 10 μM, 24 h): attenuated
- Effect of pretreatment on fenamidone-induced O2− production [5, 7]: attenuated
- Autism symptoms (humans): substantially reduces autism symptoms

SMILES: C=C(C)[C@H]1Cc2c(ccc3c2O[C@@H]2COc4cc(OC)c(OC)cc4[C@@H]2C3=O)O1 [rotenone]
- Non-cytotoxic concentration identified with live/dead assay [1]: 0.01 µM
- Chemical cluster assigned by gene expression [2]: cluster 2
- Effect on microtubules (microtubules): destabilizes microtubules

SMILES: CC(=O)O[C@H]1C(=O)[C@@]2(C)[C@H]([C@H](OC(=O)c3ccccc3)[C@]3(O)C[C@H](OC(=O)[C@H](O)[C@@H](NC(=O)c4ccccc4)c4ccccc4)C(C)=C1C3(C)C)[C@]1(OC(C)=O)CO[C@@H]1C[C@@H]2O [paclitaxel, Paclitaxel]
- Effect of pretreatment on fenamidone-induced soma swelling / aberrant morphology (cortical neurons [6]; pretreatment 10 μM): attenuated
- Effect on tubulin polymerization (purified tubulin): promoted
- Effect of pretreatment on fenamidone-induced O2− production ([5]; pretreatment 10 μM): attenuated

SMILES: CO/C(=C/C(N)=O)[C@H](C)[C@H](/C=C/c1csc(-c2csc([C@@H](C)/C=C/C=C/C(C)C)n2)n1)OC [myxothiazol, reference compound]
- Transcriptional change relative to the cluster 2 signature [2]: altered transcription in a manner consistent with chemicals in cluster 2

SMILES: CO/N=C(/C1=NOCCO1)c1ccccc1Oc1ncnc(Oc2ccccc2Cl)c1F [Fluoxastrobin, fluoxastrobin]
- Chemical cluster assigned by gene expression [2]: not assigned to cluster 2
- O2− production at the sequencing concentration [5]: did not generate

SMILES: CO/C=C(/C(=O)OC)c1ccccc1Oc1cc(Oc2ccccc2C#N)ncn1 [azoxystrobin]
- Chemical cluster assigned by gene expression [2]: not assigned to cluster 2
- O2− production at the sequencing concentration [5]: did not generate

SMILES: CC[C@]1(O)C[C@H]2CN(CCc3c([nH]c4ccccc34)[C@@](C(=O)OC)(c3cc4c(cc3OC)N(C=O)[C@H]3[C@@](O)(C(=O)OC)[C@H](OC(C)=O)[C@]5(CC)C=CCN6CC[C@]43[C@@H]65)C2)C1 [vincristine, vincristine sulfate salt]
- Soma swelling / aberrant cell morphology (cortical neurons [6]): phenocopied
- Soma swelling / aberrant cell morphology (cortical neurons [6]; listed as Vincristine): altered cell morphology; also recorded: dose-dependent
- Effect on tubulin polymerization (purified tubulin): inhibited
- Mitochondrial superoxide (O2−) production [5]: phenocopied
- Mitochondrial superoxide (O2−) production ([5]; listed as Vincristine): induced; also recorded: dose-dependent

SMILES: CO/N=C(/C(=O)OC)c1ccccc1COc1ccccc1C [kresoxim-methyl]
- Transcriptional change relative to the cluster 2 signature [2]: altered transcription in a manner consistent with chemicals in cluster 2

SMILES: CC[C@@]1(O)C(=O)OCc2c1cc1n(c2=O)Cc2cc3c(CN(C)C)c(O)ccc3nc2-1 [topotecan, Topotecan hydrochloride, reference compound]
- Spontaneous synaptic activity (cortical neuron cultures): reducing spontaneous synaptic activity
- Chemical cluster assigned by gene expression [2]: Cluster 5

SMILES: COCc1cnc(C2=NC(C)(C(C)C)C(=O)N2)c(C(=O)O)c1 (stereo not shown) [Imazamox]
- % Dead cells (vehicle subtracted) [1]: -0.1553%

SMILES: CCc1ccc(C(=O)NN(C(=O)c2cc(C)cc(C)c2)C(C)(C)C)cc1 [Tebufenozide]
- % Dead cells (vehicle subtracted) [1]: -1.661%

SMILES: Oc1ccc(C(c2ccc(O)cc2)C(Cl)(Cl)Cl)cc1
- % Dead cells (vehicle subtracted) [1]: 1.986%

SMILES: CNC(=S)[S-].O.O.[Na+] [Metam-sodium hydrate]
- % Dead cells (vehicle subtracted) [1]: -1.491%

SMILES: CN(C)NC(=O)CCC(=O)O [Daminozide]
- % Dead cells (vehicle subtracted) [1]: -0.7321%

SMILES: CCNc1nc(Cl)nc(NC(C)(C)C#N)n1 [Cyanazine]
- % Dead cells (vehicle subtracted) [1]: 0.5036%

SMILES: Oc1ccc(Cl)cc1Cc1ccccc1 [Clorophene]
- % Dead cells (vehicle subtracted) [1]: 2.359%

SMILES: CCOP(=S)(OCC)SCn1c(=O)oc2cc(Cl)ccc21 [Phosalone]
- % Dead cells (vehicle subtracted) [1]: 3.318%

SMILES: CCOC(=O)COc1cc(-n2ncc(C(F)(F)F)c(C)c2=O)c(F)cc1Cl [Flufenpyr-ethyl]
- % Dead cells (vehicle subtracted) [1]: -1.575%
